Data on 29 molecules can be found in patent US20240368173A1, “TRICYCLIC GPR65 MODULATORS” (PATHIOS THERAPEUTICS LIMITED, priority 2021, published 2024).

In general, IC50 refers to the point on the concentration scale where inhibition reaches its midpoint.

In this assay the target is human recombinant GPR65 (Homo sapiens, UniProt Q8IYL9). Put plainly: Human GPR65 cAMP HTRF antagonist assay. Format: cell-based. The procedure, abridged:
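Antagonism measured as suppression of the cAMP rise when pH is dropped to 7.2 (control wells pH 7.9) in 1321N1 cells stably carrying human GPR65. Cells in KRH with 1 mM IBMX and 200 μM EDTA saw compound 30 min, then acid stimulation 30 min; HTRF cAMP detection, normalised, 4-parameter logistic IC50.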

The mark [1] stands for this setting: 1321N1-hrGPR65 cells, cAMP HTRF, assay pH 7.2, read-out: hGPR65 IC50 (Activity of selected compounds according to the invention).

Molecules are shown by their SMILES. Read-outs that look alike come from different tables or passages of the source.

human recombinant GPR65, sequence (Q8IYL9 whole entry): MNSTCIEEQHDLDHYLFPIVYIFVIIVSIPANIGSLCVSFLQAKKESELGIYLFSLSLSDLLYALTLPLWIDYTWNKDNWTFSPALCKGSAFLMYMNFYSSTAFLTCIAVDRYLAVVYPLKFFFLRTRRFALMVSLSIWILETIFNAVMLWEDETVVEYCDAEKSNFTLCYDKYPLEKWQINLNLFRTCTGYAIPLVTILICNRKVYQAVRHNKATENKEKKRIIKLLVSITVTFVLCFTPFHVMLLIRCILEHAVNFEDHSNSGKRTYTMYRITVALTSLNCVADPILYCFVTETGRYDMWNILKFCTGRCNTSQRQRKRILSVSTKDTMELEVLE

In the case of `O=C(Nc1cc(Cl)c(Cl)cc1F)N1[C@H]2CC[C@@H]1c1c[nH]c(=O)nc1C2` [Compound 22, (5R,8S)-N-(4,5-Dichloro-2-fluorophenyl)-2-oxo-3,5,6,7,8,9-hexahydro-2H-5,8-epiminocyclohepta[d]pyrimidine-10-carboxamide], the IC50 was less than 500 nM.

As to `O=C(Nc1cc(Cl)c(Br)cc1F)N1[C@H]2CC[C@@H]1c1c[nH]c(=O)nc1C2` [Compound 23, (5R,8S)-N-(4-Bromo-5-chloro-2-fluorophenyl)-2-oxo-3,5,6,7,8,9-hexahydro-2H-5,8-epiminocyclohepta[d]pyrimidine-10-carboxamide], the IC50 is less than 500 nM.

For the molecule `O=C(Nc1cc(Cl)c(C(F)(F)F)cc1F)N1[C@H]2CC[C@@H]1c1c[nH]c(=O)nc1C2` [Compound 24, (5R,8S)-N-(5-Chloro-2-fluoro-4-(trifluoromethyl)phenyl)-2-oxo-3,5,6,7,8,9-hexahydro-2H-5,8-epiminocyclohepta[d]pyrimidine-10-carboxamide], the 50% inhibitory concentration (IC50) was less than 500 nM.

`O=C(Nc1cc(Cl)c(C(F)(F)F)cc1F)N1[C@@H]2CC[C@H]1c1c[nH]c(=O)nc1C2` [Compound 25, (5S,8R)-N-(5-Chloro-2-fluoro-4-(trifluoromethyl)phenyl)-2-oxo-3,5,6,7,8,9-hexahydro-2H-5,8-epiminocyclohepta[d]pyrimidine-10-carboxamide]: the IC50 under setting [1] fell in the range of 500 to 5000 nM.

Regarding `O=C(Nc1cc(Br)c(Cl)cc1F)N1[C@H]2CC[C@@H]1c1c[nH]c(=O)nc1C2` [Compound 26, (5R,8S)-N-(5-Bromo-4-chloro-2-fluorophenyl)-2-oxo-3,5,6,7,8,9-hexahydro-2H-5,8-epiminocyclohepta[d]pyrimidine-10-carboxamide], the IC50 was less than 500 nM.

In the case of `O=C(Nc1cc(Br)c(Cl)cc1F)N1[C@@H]2CC[C@H]1c1c[nH]c(=O)nc1C2` [Compound 27, (5S,8R)-N-(5-Bromo-4-chloro-2-fluorophenyl)-2-oxo-3,5,6,7,8,9-hexahydro-2H-5,8-epiminocyclohepta[d]pyrimidine-10-carboxamide], under setting [1], the IC50 lay in the range of 500 to 5000 nM.

Turning to `O=C(Nc1cc(Br)c(C(F)(F)F)cc1F)N1[C@H]2CC[C@@H]1c1c[nH]c(=O)nc1C2` [Compound 28, (5R,8S)-N-(5-Bromo-2-fluoro-4-(trifluoromethyl)phenyl)-2-oxo-3,5,6,7,8,9-hexahydro-2H-5,8-epiminocyclohepta[d]pyrimidine-10-carboxamide], the IC50 is less than 500 nM.

Consider `O=C(Nc1cc(Br)c(C(F)(F)F)cc1F)N1[C@@H]2CC[C@H]1c1c[nH]c(=O)nc1C2` [Compound 29, (5S,8R)-N-(5-Bromo-2-fluoro-4-(trifluoromethyl)phenyl)-2-oxo-3,5,6,7,8,9-hexahydro-2H-5,8-epiminocyclohepta[d]pyrimidine-10-carboxamide], for which, under setting [1], the IC50 was more than 5000 nM.

Turning to `O=C(Nc1ccc(C(F)(F)F)c(Br)c1)N1[C@@H]2CC[C@H]1c1n[nH]c(=O)cc1C2` [Compound 30, (6R,9S)-N-(3-Bromo-4-(trifluoromethyl)phenyl)-3-oxo-3,5,6,7,8,9-hexahydro-2H-6,9-epiminocyclohepta[c]pyridazine-10-carboxamide], the IC50 is more than 5000 nM.

As to `O=C(Nc1ccc(C(F)(F)F)c(Br)c1)N1[C@H]2CC[C@@H]1c1n[nH]c(=O)cc1C2` [Compound 31, (6S,9R)-N-(3-Bromo-4-(trifluoromethyl)phenyl)-3-oxo-3,5,6,7,8,9-hexahydro-2H-6,9-epiminocyclohepta[c]pyridazine-10-carboxamide], the IC50 was less than 500 nM.

Turning to `O=C(Nc1cc(Cl)c(Br)cc1F)N1[C@H]2CC[C@@H]1c1n[nH]c(=O)cc1C2` [Compound 32, (6S,9R)-N-(4-Bromo-5-chloro-2-fluorophenyl)-3-oxo-3,5,6,7,8,9-hexahydro-2H-6,9-epiminocyclohepta[c]pyridazine-10-carboxamide], the IC50 is less than 500 nM.

For `O=C(Nc1cc(Cl)c(Br)cc1F)N1[C@@H]2CC[C@H]1c1n[nH]c(=O)cc1C2` [Compound 33, (6R,9S)-N-(4-Bromo-5-chloro-2-fluorophenyl)-3-oxo-3,5,6,7,8,9-hexahydro-2H-6,9-epiminocyclohepta[c]pyridazine-10-carboxamide], under setting [1], the concentration for half-maximal inhibition (IC50) was more than 5000 nM.

For the molecule `O=C(Nc1cc(Br)c(C(F)(F)F)cc1F)N1[C@@H]2CC[C@H]1c1n[nH]c(=O)cc1C2` [Compound 34, (6R,9S)-N-(5-Bromo-2-fluoro-4-(trifluoromethyl)phenyl)-3-oxo-3,5,6,7,8,9-hexahydro-2H-6,9-epiminocyclohepta[c]pyridazine-10-carboxamide], the IC50 under setting [1] is more than 5000 nM.

For `O=C(Nc1cc(Br)c(C(F)(F)F)cc1F)N1[C@H]2CC[C@@H]1c1n[nH]c(=O)cc1C2` [Compound 35, (6S,9R)-N-(5-Bromo-2-fluoro-4-(trifluoromethyl)phenyl)-3-oxo-3,5,6,7,8,9-hexahydro-2H-6,9-epiminocyclohepta[c]pyridazine-10-carboxamide], the half-inhibitory concentration (IC50) was less than 500 nM.

As to `O=C(Nc1cc(Br)c(Cl)cc1F)N1[C@H]2CC[C@@H]1c1n[nH]c(=O)cc1C2` [Compound 37, (6S,9R)-N-(5-Bromo-4-chloro-2-fluorophenyl)-3-oxo-3,5,6,7,8,9-hexahydro-2H-6,9-epiminocyclohepta[c]pyridazine-10-carboxamide], the IC50 is less than 500 nM.

On to `O=C(Nc1cc(Br)c(Cl)cc1F)N1[C@@H]2CC[C@H]1c1n[nH]c(=O)cc1C2` [Compound 38, (6R,9S)-N-(5-Bromo-4-chloro-2-fluorophenyl)-3-oxo-3,5,6,7,8,9-hexahydro-2H-6,9-epiminocyclohepta[c]pyridazine-10-carboxamide], for which the IC50 lay within 500 to 5000 nM.

For the molecule `O=C(Nc1ccc(Br)c(Cl)c1)N1[C@H]2CC[C@@H]1c1n[nH]c(=O)cc1C2` [Compound 39, (6S,9R)-N-(4-Bromo-3-chlorophenyl)-3-oxo-3,5,6,7,8,9-hexahydro-2H-6,9-epiminocyclohepta[c]pyridazine-10-carboxamide], the half-inhibitory concentration (IC50) was less than 500 nM.

Regarding `O=C(Nc1ccc(Br)c(Cl)c1)N1[C@@H]2CC[C@H]1c1n[nH]c(=O)cc1C2` [Compound 40, (6R,9S)-N-(4-Bromo-3-chlorophenyl)-3-oxo-3,5,6,7,8,9-hexahydro-2H-6,9-epiminocyclohepta[c]pyridazine-10-carboxamide], the IC50 under setting [1] was more than 5000 nM.

For `N#Cc1cc(NC(=O)N2[C@H]3CC[C@@H]2c2n[nH]c(=O)cc2C3)ccc1C(F)(F)F` [Compound 41, (6S,9R)-N-(3-Cyano-4-(trifluoromethyl)phenyl)-3-oxo-3,5,6,7,8,9-hexahydro-2H-6,9-epiminocyclohepta[c]pyridazine-10-carboxamide], the IC50 was less than 500 nM.

Regarding `O=C(Nc1cc(Cl)c(C2CC2)cc1F)N1[C@H]2CC[C@@H]1c1n[nH]c(=O)cc1C2` [Compound 42, (6S,9R)-N-(5-Chloro-4-cyclopropyl-2-fluorophenyl)-3-oxo-3,5,6,7,8,9-hexahydro-2H-6,9-epiminocyclohepta[c]pyridazine-10-carboxamide], the concentration for half-maximal inhibition (IC50) was less than 500 nM.

For `O=C(Nc1ccc(OC(F)(F)F)c(Cl)c1)N1[C@@H]2CC[C@H]1c1n[nH]c(=O)cc1C2` [Compound 45, (6R,9S)-N-(3-Chloro-4-(trifluoromethoxy)phenyl)-3-oxo-3,5,6,7,8,9-hexahydro-2H-6,9-epiminocyclohepta[c]pyridazine-10-carboxamide], under setting [1], the IC50 was more than 5000 nM.

With `O=C(Nc1ccc(OC(F)(F)F)c(Cl)c1)N1[C@H]2CC[C@@H]1c1n[nH]c(=O)cc1C2` [Compound 46, (6S,9R)-N-(3-Chloro-4-(trifluoromethoxy)phenyl)-3-oxo-3,5,6,7,8,9-hexahydro-2H-6,9-epiminocyclohepta[c]pyridazine-10-carboxamide], the IC50 is less than 500 nM.

`O=C(Nc1ccc(Br)c(C(F)(F)F)c1)N1[C@H]2CC[C@@H]1c1n[nH]c(=O)cc1C2` [Compound 47, (6S,9R)-N-(4-Bromo-3-(trifluoromethyl)phenyl)-3-oxo-3,5,6,7,8,9-hexahydro-2H-6,9-epiminocyclohepta[c]pyridazine-10-carboxamide]: the IC50 was less than 500 nM.

As to `O=C(Nc1ccc(Br)c(C(F)(F)F)c1)N1[C@@H]2CC[C@H]1c1n[nH]c(=O)cc1C2` [Compound 48, (6R,9S)-N-(4-Bromo-3-(trifluoromethyl)phenyl)-3-oxo-3,5,6,7,8,9-hexahydro-2H-6,9-epiminocyclohepta[c]pyridazine-10-carboxamide], the IC50 fell in the range of 500 to 5000 nM.

As for `O=C(Nc1ccc(Cl)c(Br)c1)N1[C@H]2CC[C@@H]1c1n[nH]c(=O)cc1C2` [Compound 49, (6S,9R)-N-(3-Bromo-4-chlorophenyl)-3-oxo-3,5,6,7,8,9-hexahydro-2H-6,9-epiminocyclohepta[c]pyridazine-10-carboxamide], the IC50 was less than 500 nM.

With `O=C(Nc1ccc(Cl)c(Br)c1)N1[C@@H]2CC[C@H]1c1n[nH]c(=O)cc1C2` [Compound 50, (6R,9S)-N-(3-Bromo-4-chlorophenyl)-3-oxo-3,5,6,7,8,9-hexahydro-2H-6,9-epiminocyclohepta[c]pyridazine-10-carboxamide], the IC50 under setting [1] was more than 5000 nM.

`COc1ccc2c(n1)C[C@@H]1CC[C@H]2N1C(=O)Nc1cc(Cl)c(Cl)cc1F` [Compound 54, (5R,8S)-N-(4,5-Dichloro-2-fluorophenyl)-2-methoxy-6,7,8,9-tetrahydro-5H-5,8-epiminocyclohepta[b]pyridine-10-carboxamide]: the half-inhibitory concentration (IC50) under setting [1] is more than 5000 nM.

`O=C(Nc1ccc(-c2ccsc2)cc1)N1[C@H]2CC[C@@H]1c1ccnc(F)c1C2` [Compound 55, (5R,8S)-1-Fluoro-N-(4-(thiophen-3-yl)phenyl)-6,7,8,9-tetrahydro-5H-5,8-epiminocyclohepta[c]pyridine-10-carboxamide]: the IC50 is less than 500 nM.

With `Cc1ncc(-c2ccc(NC(=O)N3[C@H]4CC[C@@H]3c3ccnc(F)c3C4)cc2)o1` [Compound 56, (5R,8S)-1-Fluoro-N-(4-(2-methyloxazol-5-yl)phenyl)-6,7,8,9-tetrahydro-5H-5,8-epiminocyclohepta[c]pyridine-10-carboxamide], the IC50 under setting [1] fell in the range of 500 to 5000 nM.
